This is an account of results in publication PMC5920098, “Identification of the allosteric P2X7 receptor antagonist [^11C]SMW139 as a PET tracer of microglial activation” (Scientific Reports, 2018).

Entries after “also recorded” stand apart in the source; their conditions may differ.

Series [1] is described as follows: Plasma metabolite analysis in female rAAV-hP2X7R rats. It is filed as in vivo. Particulars: female rat. Here is the method: In vivo stability of analogues [^11C]1–3 and [^11C]SMW139 was assessed in healthy male Wistar rats at 15 and 45 minutes after injection of 30–40 MBq of formulated tracer. […] Results obtained in plasma correspond with previously reported stability results in rat liver microsomes. A higher level of intact tracer was found in brain (Table 3) for [^11C]1 and [^11C]SMW139 compared with [^11C]2 and [^11C]3. Despite optimisation of the extraction method, the percentage of total radioactivity that could be extracted from brain homogenates was not optimal for all four compounds (59 ± 6% for [^11C]1; 58 ± 7% for [^11C]2; 61 ± 4% for [^11C]3; 62 ± 3% for [^11C]SMW139). Therefore, based on its highest stability in plasma in vivo, [^11C]SMW139 was selected for further in vivo studies. As imaging studies were performed in female rats, plasma metabolites were also determined in two female rats, and no differences were found between plasma metabolism of [^11C]SMW139 in male and female rats (Table S1; Supplementary Information). […]
Ex vivo metabolite analysis
Healthy male and female Wistar rats (254-440 g) were injected with 30-40 MBq (at start of experiment) of formulated tracer in the tail vein under isoflurane anaesthesia. Rats were sacrificed at 15 and 45 min (n = 3 per time point). Blood samples were obtained and the brain was excised. Blood samples were collected in heparin tubes (BD Vacutainer NH 119 I.U., 7 mL, BD Vacutainer Systems, Plymouth, UK) and centrifuged at 4,000 rpm for 5 min at 4 °C (Hettich Universal 32, Andreas Hettich GmbH & Co.KG, Tuttlingen, Germany). Plasma supernatant was separated from blood cells and loaded onto a tC18 Sep-Pak (Waters, Milford, MA, USA), followed by washing with 3 mL of water to obtain the polar fraction. The non-polar fraction was then eluted with 2 mL of MeOH and 1 mL of water and further analysed by HPLC. The brain was put in a falcon tube containing 4 mL MeCN/H2O (50:50 v/v) and homogenised with a disperser (IKA T18 B Ultra-Turrax, IKA®-Werke GmbH & Co.KG, Staufen, Germany) before centrifugation (5 min, 4,000 rpm, 20 °C, Hettich Universal 32). Supernatant was separated from brain precipitate and analysed by HPLC. Analytical HPLC was performed with Dionex (Sunnyvale, CA, USA) UltiMate 3000 HPLC equipment with Chromeleon software (version 6.8) on a Gemini C18 5-µm (10 x 250 mm) column (Phenomenex, Torrance, CA, USA) with gradient and a mixture of MeCN (A) and 0.1% DIPA in water (B) as eluent according to the following scheme: 0 min, […]
0.25 mL·min-1. All separate fractions were counted for radioactivity in a Wizard Gammacounter 1470 or 2480 (Wallac/PerkinElmer, Waltham, MA, USA).
Table S1: Metabolic profile of [11C]SMW139 in female rAAV-hP2X7R rats. […]

A further series deals with T1, P2X7R (Homo sapiens, UniProt Q99572).
T1 construct: Snap frozen human post-mortem; tissue The Netherlands Brain Bank; host or cells: post mortem human temporal cortex (AD patients and non-neurological controls)
T1 sequence (Q99572 1-595): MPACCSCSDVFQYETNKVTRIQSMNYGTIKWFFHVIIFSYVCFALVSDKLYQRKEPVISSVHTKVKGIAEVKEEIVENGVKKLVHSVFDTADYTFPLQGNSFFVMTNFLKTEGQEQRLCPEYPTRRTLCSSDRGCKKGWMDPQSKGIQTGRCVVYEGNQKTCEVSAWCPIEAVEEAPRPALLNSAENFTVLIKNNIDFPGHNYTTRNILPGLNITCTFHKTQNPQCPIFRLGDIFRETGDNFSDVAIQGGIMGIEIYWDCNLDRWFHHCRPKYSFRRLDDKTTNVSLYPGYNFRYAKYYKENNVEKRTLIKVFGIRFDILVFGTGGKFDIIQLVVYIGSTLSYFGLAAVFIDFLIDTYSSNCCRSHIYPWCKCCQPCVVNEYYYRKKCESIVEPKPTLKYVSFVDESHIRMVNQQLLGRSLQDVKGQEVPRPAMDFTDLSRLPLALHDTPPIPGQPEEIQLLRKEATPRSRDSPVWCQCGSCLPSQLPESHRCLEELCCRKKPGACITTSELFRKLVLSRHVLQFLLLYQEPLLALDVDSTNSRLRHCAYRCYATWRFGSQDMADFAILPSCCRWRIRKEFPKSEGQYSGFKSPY
Briefly: In vitro autoradiography on post mortem human brain tissue (AD patients and controls). It is filed as binding. To be noted: tracer 28 nM.

The test system of a further series is mouse P2X7R. The arrangement: method as in PMID 28841278. To be noted: cited from earlier work.

As for `[11CH3]Oc1ccc(Cl)c(C(=O)NCC23CC4(F)CC(F)(CC(F)(C4)C2)C3)c1` [[^11C]SMW139], the “Intact tracer (%)” value stood at 78% in series [1] (Rat 1, 15 min); 50% in series [1] (Rat 1, 45 min); 63% in series [1] (Rat 2, 15 min); 32% in series [1] (Rat 2, 45 min). The “Tracer binding in white matter vs grey matter” value on P2X7R (AD patients and controls) is “Higher tracer binding was observed in white matter compared with grey matter; also recorded: higher in white matter than in grey matter”. Also, the “Tracer binding in AD patients vs non-neurological controls” value on P2X7R (temporal cortex, grey and white matter) is “does not differ significantly; also recorded: did not differ significantly; also recorded: no significant differences”. The “Affinity lower for mouse P2X7R compared with hP2X7R” value with mouse P2X7R is 6 fold.
